Results taken from patent US9693556B2, “Herbicidal pyridazinone derivatives” (SYNGENTA LIMITED, priority 2011, dated 2017).

Key:
Format in all cases: in vivo
[1] = tested on: Amaranthus retoflexus (AMARE); experiment: Post-emergence herbicidal glasshouse test on Amaranthus retoflexus; conditions: post-emergence; 1000 g/h; evaluated after 13 days
Summary of the method: (§1)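 Plants sprayed 1 day (pre-emergence) or 8 days (post-emergence) after sowing with compound at 1000 g/h in acetone/water 50:50 with 0.5% Tween 20; glasshouse 24/16° C, 14 h light, 65% humidity. Damage assessed after 13 days, scored 1–5 (5 = 80-100%, 1 = 0-19%).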

[2] = tested on: Echinochloa crus-galli (ECHCG); experiment: Post-emergence herbicidal glasshouse test on Echinochloa crus-galli; conditions: post-emergence; 1000 g/h; evaluated after 13 days
Summary of the method: as §1

[3] = tested on: Ipomoea hederacea (IPOHE); experiment: Pre-emergence herbicidal glasshouse test on Ipomoea hederacea; conditions: pre-emergence; 1000 g/h; evaluated after 13 days
Summary of the method: as §1

[4] = tested on: Alopecurus myosuroides (ALOMY); experiment: Pre-emergence herbicidal glasshouse test on Alopecurus myosuroides; conditions: pre-emergence; 1000 g/h; evaluated after 13 days
Summary of the method: as §1

[5] = tested on: Echinochloa crus-galli (ECHCG); experiment: Pre-emergence herbicidal glasshouse test on Echinochloa crus-galli; conditions: pre-emergence; 1000 g/h; evaluated after 13 days
Summary of the method: as §1

[6] = tested on: Setaria faberi (SETFA); experiment: Post-emergence herbicidal glasshouse test on Setaria faberi; conditions: post-emergence; 1000 g/h; evaluated after 13 days
Summary of the method: as §1

[7] = tested on: Setaria faberi (SETFA); experiment: Pre-emergence herbicidal glasshouse test on Setaria faberi; conditions: pre-emergence; 1000 g/h; evaluated after 13 days
Summary of the method: as §1

[8] = tested on: Solanum nigrum (SOLNI); experiment: Pre-emergence herbicidal glasshouse test on Solanum nigrum; conditions: pre-emergence; 1000 g/h; evaluated after 13 days
Summary of the method: as §1

[9] = tested on: Solanum nigrum (SOLNI); experiment: Post-emergence herbicidal glasshouse test on Solanum nigrum; conditions: post-emergence; 1000 g/h; evaluated after 13 days
Summary of the method: as §1

[10] = tested on: Alopecurus myosuroides (ALOMY); experiment: Post-emergence herbicidal glasshouse test on Alopecurus myosuroides; conditions: post-emergence; 1000 g/h; evaluated after 13 days
Summary of the method: as §1

[11] = tested on: Amaranthus retoflexus (AMARE); experiment: Pre-emergence herbicidal glasshouse test on Amaranthus retoflexus; conditions: pre-emergence; 1000 g/h; evaluated after 13 days
Summary of the method: as §1

[12] = tested on: Ipomoea hederacea (IPOHE); experiment: Post-emergence herbicidal glasshouse test on Ipomoea hederacea; conditions: post-emergence; 1000 g/h; evaluated after 13 days
Summary of the method: as §1

Compound	POST Application AMARE herbicidal damage (five point scale) [1]	POST Application ECHCG herbicidal damage (five point scale) [2]	PRE Application IPOHE herbicidal damage (five point scale) [3]	PRE Application ALOMY herbicidal damage (five point scale) [4]	PRE Application ECHCG herbicidal damage (five point scale) [5]	POST Application SETFA herbicidal damage (five point scale) [6]	PRE Application SETFA herbicidal damage (five point scale) [7]	PRE Application SOLNI herbicidal damage (five point scale) [8]	POST Application SOLNI herbicidal damage (five point scale) [9]	POST Application ALOMY herbicidal damage (five point scale) [10]	PRE Application AMARE herbicidal damage (five point scale) [11]	POST Application IPOHE herbicidal damage (five point scale) [12]
Cc1cc(-c2cnn(C)c(=O)c2O)c(C)c2c1S(=O)(=O)CCC21OCCO1 [Compound 1.031]	5 (5=80-100% damage)	5 (5=80-100% damage)	1 (1=0-19% damage)	1 (1=0-19% damage)	5 (5=80-100% damage)	5 (5=80-100% damage)	4 (4=60-79% damage)	2 (2=20-39% damage)	5 (5=80-100% damage)	2 (2=20-39% damage)	5 (5=80-100% damage)	5 (5=80-100% damage)
COc1cccc(-c2c(C(F)(F)F)ccn(-c3cnn(C)c(=O)c3O)c2=O)c1 [Compound 7.003]	5 (5=80-100% damage)	5 (5=80-100% damage)	3 (3=40-59% damage)	4 (4=60-79% damage)	4 (4=60-79% damage)	3 (3=40-59% damage)	4 (4=60-79% damage)	5 (5=80-100% damage)	5 (5=80-100% damage)	4 (4=60-79% damage)	5 (5=80-100% damage)	3 (3=40-59% damage)
Cn1ncc(-c2ccc(S(C)(=O)=O)cc2S(C)(=O)=O)c(O)c1=O [Compound 1.119]	5 (5=80-100% damage)	5 (5=80-100% damage)	5 (5=80-100% damage)	5 (5=80-100% damage)	5 (5=80-100% damage)	5 (5=80-100% damage)	5 (5=80-100% damage)	5 (5=80-100% damage)	5 (5=80-100% damage)	5 (5=80-100% damage)	5 (5=80-100% damage)	5 (5=80-100% damage)
Cn1ncc(-n2ccc(C(F)(F)F)c(-c3cc(F)c(F)c(F)c3)c2=O)c(O)c1=O [Compound 7.017]	5 (5=80-100% damage)	5 (5=80-100% damage)	4 (4=60-79% damage)	5 (5=80-100% damage)	5 (5=80-100% damage)	5 (5=80-100% damage)	5 (5=80-100% damage)	5 (5=80-100% damage)	5 (5=80-100% damage)	5 (5=80-100% damage)	5 (5=80-100% damage)	5 (5=80-100% damage)
Cn1ncc(-c2cccc3ccccc23)c(O)c1=O [Compound 1.095]	1 (1=0-19% damage)	1 (1=0-19% damage)	1 (1=0-19% damage)	1 (1=0-19% damage)	1 (1=0-19% damage)	1 (1=0-19% damage)	1 (1=0-19% damage)	1 (1=0-19% damage)	1 (1=0-19% damage)	1 (1=0-19% damage)	1 (1=0-19% damage)	1 (1=0-19% damage)
Cn1ncc(-c2ccc(S(C)(=O)=O)c(C3=NOCC3)c2Cl)c(O)c1=O [Compound 1.032]	5 (5=80-100% damage)	5 (5=80-100% damage)	4 (4=60-79% damage)	5 (5=80-100% damage)	5 (5=80-100% damage)	5 (5=80-100% damage)	5 (5=80-100% damage)	5 (5=80-100% damage)	5 (5=80-100% damage)	5 (5=80-100% damage)	5 (5=80-100% damage)	5 (5=80-100% damage)
Cn1ncc(-c2ccc(C(F)(F)F)nc2N2CCOCC2)c(O)c1=O [Compound 1.075]	5 (5=80-100% damage)	5 (5=80-100% damage)	2 (2=20-39% damage)	1 (1=0-19% damage)	5 (5=80-100% damage)	2 (2=20-39% damage)	1 (1=0-19% damage)	5 (5=80-100% damage)	5 (5=80-100% damage)	3 (3=40-59% damage)	5 (5=80-100% damage)	5 (5=80-100% damage)
Cc1cc(-c2cnn(C)c(=O)c2O)c(=O)n(-c2ccccc2)c1 [Compound 6.001]	5 (5=80-100% damage)	5 (5=80-100% damage)	1 (1=0-19% damage)	1 (1=0-19% damage)	1 (1=0-19% damage)	3 (3=40-59% damage)	1 (1=0-19% damage)	1 (1=0-19% damage)	5 (5=80-100% damage)	3 (3=40-59% damage)	1 (1=0-19% damage)	1 (1=0-19% damage)
Cn1ncc(-c2ccccc2C#N)c(O)c1=O [Compound 1.022]	2 (2=20-39% damage)	1 (1=0-19% damage)	1 (1=0-19% damage)	1 (1=0-19% damage)	1 (1=0-19% damage)	1 (1=0-19% damage)	1 (1=0-19% damage)	1 (1=0-19% damage)	3 (3=40-59% damage)	1 (1=0-19% damage)	1 (1=0-19% damage)	1 (1=0-19% damage)
Cc1cc(-c2cnn(C)c(=O)c2O)c(=O)n(-c2ccsc2)c1 [Compound 6.002]	4 (4=60-79% damage)	1 (1=0-19% damage)	2 (2=20-39% damage)	1 (1=0-19% damage)	1 (1=0-19% damage)	1 (1=0-19% damage)	1 (1=0-19% damage)	5 (5=80-100% damage)	3 (3=40-59% damage)	1 (1=0-19% damage)	5 (5=80-100% damage)	2 (2=20-39% damage)
